Laboratory results as given in PubChem BioAssay (NCI).
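Growth conditions: 96-well plates. Treatment: test compound, 48 hours, 5 concentrations. Analysis: linear interpolation between bracketing concentrations; unreached endpoints set to highest concentration. Here, GI50 denotes the concentration required for 50% inhibition of growth. TGI: concentration producing complete growth inhibition.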

Key:
Assay in all cases: NCI tumour cell line growth inhibition, 48 h
[1] = test system: SK-MEL-2 melanoma
[2] = test system: CAKI-1 renal
[3] = test system: SNB-75 CNS
[4] = test system: NCI-H226 lung
[5] = test system: SF-295 CNS
[6] = test system: OVCAR-8 ovarian
[7] = test system: HT29 colon
[8] = test system: MALME-3M melanoma
[9] = test system: SR leukemia
[10] = test system: K-562 leukemia

SMILES	GI50 [1] [µM]	TGI [1] [µM]	GI50 [2] [µM]	TGI [2] [µM]	GI50 [3] [µM]	TGI [3] [µM]	GI50 [4] [µM]	TGI [4] [µM]	GI50 [5] [µM]	TGI [5] [µM]	GI50 [6] [µM]	TGI [6] [µM]	GI50 [7] [µM]	TGI [7] [µM]	GI50 [8] [µM]	TGI [8] [µM]	GI50 [9] [µM]	TGI [9] [µM]	GI50 [10] [µM]	TGI [10] [µM]
CC1=C(C(=O)Nc2ccc3[nH]ncc3c2)C(c2ccc3ccccc3c2)CC(=O)N1 (stereo not drawn)	> 25	> 25	> 16.9	> 25	1.54	> 20.1	1.04	> 18.2	16.5	> 25	> 25	> 25	20	> 25	11	> 25	> 25	> 25	> 25	> 25
CCOC(=O)NC(=O)c1cn(C2OC(COC(=O)CCCCCCCCC(=O)OCC3OC(n4cc(C(=O)NC(=O)OCC)c(=O)[nH]c4=O)C(O)C3O)C(O)C2O)c(=O)[nH]c1=O (stereo not drawn)		> 100		> 100		> 100		> 100		> 100		> 100		> 100		> 100		> 100		> 100
COC(=O)CCCCN=Cc1c(O)c(O)c(C(C)C)c2cc(C)c(-c3c(C)cc4c(C(C)C)c(O)c(O)c(C=NCCCCC(=O)OC)c4c3O)c(O)c12	1.38	> 32.5	1.17	> 32.5	2.6	> 32.5	1.3	8.38	0.83	7.92	0.959	> 32.5	0.978	17.1	1.47	> 32.5	0.917	5.72	0.64	4.09
O=C(c1ccco1)c1nc2ccc(C(F)(F)F)cc2[n+]([O-])c1C(F)(F)F	87.7	> 100	31	> 100	10.6	37.8	53.9	> 100	53.2	> 100	50	> 100	29.9	> 100	27.9	77.2	20.8	57.4	31.3	> 100
COc1cnc2cc(C(=O)O)c3c([N+](=O)[O-])cccc3c2c1		> 100		> 100		> 100		> 100		> 100		> 100		> 100		> 100		> 100		> 100
COC(=O)c1cc2c3ccccc3[nH]c2c2ncccc12	> 100	> 100	8.12	> 100	17.3	65.3	> 100	> 100	36.9	> 100	61.2	> 100	59.2	> 100	> 100	> 100	66.4	> 100	75.3	> 100
N#CC1(Cc2ccc(N)cc2)c2ccccc2C=CN1C(=O)c1ccccc1 (stereo not drawn)		> 100				> 100		> 100		> 100		> 100		> 100		> 100		94.3		> 100
CCCCC(=O)OCC1OC(n2cnc3c(=S)nc[nH]c32)C(OC(=O)CCCC)C1OC(=O)CCCC (stereo not drawn)	1.61	> 78.7	2.26	> 100	0.213			> 100	1.54	> 26.4	3.05	> 100	3.64	> 100	> 22.1	> 100	7.5	> 100	2.03	> 100
N#C/C(=C/c1ccsc1)C(=O)c1ccccc1		> 100		> 100		> 100		> 100		> 100		> 100		> 100		> 100		> 100		> 100
Cc1ccc(S(=O)(=O)N(CCOc2ccc(/C(N)=N/Cl)cc2)CCOc2ccc(/C(N)=N\Cl)cc2)cc1	> 100	> 100	76.6	> 100	4.92	20.1	59.6	> 100	7.71	42.9	12	> 100	9.8	> 100	19.6	83.6	27.8	> 100	4.17	24
CN(C)CCC(=O)N1C/C(=C/c2ccccc2)C(=O)/C(=C\c2ccccc2)C1		8.74		7.02		15.1		12.6		8.55		7.58		2.69		5.9		8.63		0.973
COC(=O)CC(=O)C[P+](c1ccccc1)(c1ccccc1)c1ccccc1		> 218		> 218				> 218		> 218		> 218		> 218		> 218		> 218		> 218
COc1cc(/C=C/c2cc(/C=C/c3ccc(O)c(OC)c3)n(-c3ccccc3)n2)ccc1O	0.266	2.03	0.33	7.26			0.382	1.83			0.466	3.55	0.724	4.1			0.0353	> 100		
Cn1c(N2NC(=O)C(N=Nc3ccc(S(N)(=O)=O)cc3)C2=O)nc(-c2ccco2)c(C#N)c1=O (stereo not drawn)	> 50	> 50	11.9	> 50	39.2	> 50	> 50	> 50	> 50	> 50	> 50	> 50	33.4	> 50	0.0614	7.62	2.89	28.4	5.69	31.2
CCNCCNc1cc(-c2ccc(C(=O)OC)cc2)c(C#N)c2nc3ccccc3n12	5.15	31.5	2.92	> 100	1.53	3.17	2.02	8.39	1.57	3.12	2.13	5.32	1.6	4.47	1.95	3.69	0.24	0.613	1.23	3.2
